Data taken from ChEMBL document CHEMBL4014333, “Discovery of Small Molecules for Repressing Cap-Independent Translation of Human Vascular Endothelial Growth Factor (hVEGF) as Novel Antitumor Agents” (J Med Chem, 2017).
The source made the active and inactive calls. The rule behind the calls is not given here.

Legend:
[1] = species: Homo sapiens; assay: Binding affinity to internal ribosome entry site A RNA G-quadruplex region of VEGF-A protein in human MDA-MB-231 cells assessed as inhibition of VEGF-A protein induced cell migration at 0.5 to 8 uM after 4 hrs by RTCA method; type: cell-based
[2] = species: Homo sapiens; assay: Binding affinity to internal ribosome entry site A RNA G-quadruplex region of human VEGF-A 5'-UTR at 10 uM by PCR stop assay
[3] = system: MCF7; assay: Cytotoxicity against human MCF7 cells assessed as reduction in cell viability; type: cell-based
[4] = Binding affinity to 5'- FAM-labeled human 5'-UGAUGAGUGUGAGGAGGA-3' RNA G-quadruplex after 5 mins by MST analysis
[5] = species: Homo sapiens; assay: Binding affinity to 5'- FAM-labeled human 5'-UGAUGAGUGUGAGUAGUA-3' RNA at 100 uM after 5 mins by MST analysis
[6] = Binding affinity to 5'- FAM-labeled 5'-GGAGGAGGGGGAGGAGGA-3' DNA (unknown origin) up to 60 uM after 5 mins by MST analysis
[7] = Binding affinity to C-kit 1 DNA G-quadruplex (unknown origin) at 1 uM after 24 hrs by spectrophotometric method
[8] = species: Bos taurus; assay: Binding affinity to calf thymus DNA at 1 uM after 24 hrs by spectrophotometric method
[9] = species: Homo sapiens; assay: Binding affinity to human 5'-AGGAGCCGCAGCCGGAAGAGGAGAGGGGGCCGC-3' DNA at 1 uM after 24 hrs by spectrophotometric method
[10] = species: Homo sapiens; assay: Binding affinity to human 5'-UCGGGCCGGGAGGAGCCGCAGCCGGAA-3' […] at 1 uM after 24 hrs by spectrophotometric method
[11] = Binding affinity to ADAM10 RNA G-quadruplex (unknown origin) at 1 uM after 24 hrs by spectrophotometric method
[12] = Binding affinity to NRAS-RNA G-quadruplex (unknown origin) at 1 uM after 24 hrs by spectrophotometric method
[13] = Binding affinity to BCL-2 RNA G-quadruplex (unknown origin) at 1 uM after 24 hrs by spectrophotometric method
[14] = Binding affinity to RNA (unknown origin) at 1 uM after 24 hrs by spectrophotometric method
[15] = Binding affinity to RNA hairpin (unknown origin) at 1 uM after 24 hrs by spectrophotometric method
[16] = species: Homo sapiens; assay: Binding affinity to human 5'-UGAUGAGUGUGAGUAGUA-3' RNA at 1 uM after 24 hrs by spectrophotometric method
[17] = species: Homo sapiens; assay: Destabilization of human internal ribosome entry site A RNA G-quadruplex by CD spectral analysis
[18] = species: Homo sapiens; assay: Destabilization of human wild type internal ribosome entry site A RNA G-quadruplex assessed as melting temperature at 5 uM by CD spectra method (reference value: 80.9 +/- 0.8 degreeC)
[19] = species: Homo sapiens; assay: Destabilization of human 5'-FAM-labeled 5'-UGAUGAGUGUGAGUAGUA-3' RNA up to 10 uM measured after 3 hrs by electrophoresis mobility shift assay
[20] = Binding affinity to biotin-labeled human wild type internal ribosome entry site A RNA G-quadruplex by SPR analysis
[21] = Binding affinity to biotin-labeled DNA hairpin (unknown origin) by SPR analysis
[22] = species: Homo sapiens; assay: Selectivity ratio of Kd for biotin labeled human 5'-UGAUGAGUGUGAGGAGGA-3' RNA G-quadruplex to Kd for biotin-labeled human wild type internal ribosome entry site A RNA G-quadruplex
[23] = species: Homo sapiens; assay: Inhibition of BG4 antibody binding to biotin-labeled human wild type internal ribosome entry site A RNA G-quadruplex at 1.25 to 10 uM after 3 hrs by filter binding assay
[24] = species: Homo sapiens; assay: Inhibition of FLAG-labeled BG4 antibody binding to human wild type internal ribosome entry site A RNA G-quadruplex at 1.25 to 10 uM preincubated with RNA followed by antibody addition by pull-down assay
[25] = Inhibition of NT-647 dye-labeled BG4 binding to human wild type internal ribosome entry site A RNA G-quadruplex assessed as BG4 antibody Kd by MST analysis (reference value: 10.8 nM)
[26] = species: Homo sapiens; assay: Inhibition of NT-647 dye-labeled BG4 antibody binding to human 5'-UGAUGAGUGUGAGUAGUA-3' RNA by MST analysis
[27] = species: Homo sapiens; assay: Inhibition of BG4 protein binding to human wild type internal ribosome entry site A RNA G-quadruplex in MCF7 cells transfected with pcDNA3.1-BG4 plasmid at 2.5 to 5 uM after 24 hrs by RT-PCR analysis; type: cell-based
[28] = system: MCF7; assay: Cytotoxicity against human MCF7 cells after 48 hrs relative to control; type: cell-based; settings: mcf7, 48 h
[29] = species: Homo sapiens; assay: Destabilization of human wild type internal ribosome entry site A RNA G-quadruplex expressed in MCF7 cells assessed as down regulation of VEGF-A translation at 1.5 uM after 24 hrs by dual-luciferase reporter gene assay relative to control; type: cell-based
[30] = species: Homo sapiens; assay: Destabilization of human 5'-UGAUGAGUGUGAGUAGUA-3' RNA expressed in MCF7 cells assessed as down regulation of VEGF-A translation at 0.1875 to 1.5 uM after 24 hrs by dual-luciferase reporter gene assay; type: cell-based
[31] = species: Homo sapiens; assay: Destabilization of human wild type internal ribosome entry site A RNA G-quadruplex expressed in human MCF7 cells assessed as decrease in VEGF-A protein expression at 1.5 uM after 48 hrs by ELISA relative to control; type: cell-based; design: scale not given: the % may be the effect or the level left
[32] = system: Mus musculus; assay: Downregulation of VEGF-A expression in tumor of Balb/c mouse xenografted with human MCF7 cells at 7.5 mg/kg, ip qd for 20 days by immunohistochemical analysis; type: functional, organism-based
[33] = system: MCF7; assay: Effect on human VEGF-A transcription expressed in human MCF7 cells assessed as Met luciferase gene expression at 0.1875 to 3 uM by qRT-PCR analysis; type: functional, cell-based
[34] = species: Homo sapiens; assay: Binding affinity to internal ribosome entry site A RNA G-quadruplex region of VEGF-A protein in CoCl2 treated human MCF7 cells assessed as VEGF-A protein induced cell migration at 3 uM preincubated for 48 hrs followed by VEGF-A protein addition measured after 12 hrs by cell scrape test relative to control
[35] = species: Homo sapiens; assay: Destabilization of wild type internal ribosome entry site A RNA G-quadruplex in CoCl2 treated human MCF7 cells assessed as decrease in VEGF-A protein expression at 0.1875 to 3 uM after 48 hrs by Western blot analysis
[36] = system: MCF7; assay: Antitumor activity against human MCF7 cells xenografted in nude Balb/c mouse assessed as reduction in tumor weight at 7.5 mg/kg, ip qd for 20 days relative to control; type: functional; design: scale not given: the % may be the effect or the level left
[37] = system: Mus musculus; assay: Toxicity in nude Balb/c mouse xenografted with human MCF7 cells assessed as change in body weight at 7.5 mg/kg, ip qd for 20 days; type: organism-based; settings: in vivo, 480 h
[38] = Binding affinity to 5'- FAM-labeled c-Kit1 G-quadruplex DNA (unknown origin) up to 100 uM after 5 mins by MST analysis

Activity [2]: inactive
Kd [4]: 13.4 to 20.5 µM
Activity [5]: inactive
Activity [6]: Active
Activity [7]: inactive
Activity [8]: inactive
Activity [9]: inactive
Activity [10]: inactive
Activity [11]: inactive
Activity [12]: inactive
Activity [13]: inactive
Activity [14]: inactive
Activity [15]: inactive
Activity [16]: inactive
Activity [17]: Dose-dependent effect
Tm [18]: 62.2 °C
Activity [19]: inactive
Kd [20]: 0.928 µM
Kd [21]: 21.2 µM
Selectivity ratio [22]: 4
inhibition [23]: Active
inhibition [24]: Active
Kd [25]: 4.64 µM
inhibition [26]: Active
Activity [34]: 35%
Activity [35]: Dose-dependent effect
Activity [38]: Active
SMILES: CCN(CC)CCOc1ccc(Nc2nc(-c3ccccc3NC(=O)CCN3CCN(C)CC3)nc3ccccc23)cc1
Activity [1]: Active
IC50 [3]: 12.5 µM
inhibition [27]: Active
Activity [28]: 82.7%
Activity [29]: 80%
Activity [30]: inactive
Activity [31]: 75%
Activity [32]: Active
Activity [33]: inactive
Activity [36]: 60.1%
Activity [37]: Non-Toxic
